The text below walks through data of PMC8286840, “Identifying SARS-CoV-2 antiviral compounds by screening for small molecule inhibitors of Nsp3 papain-like protease” (Biochemical Journal, 2021).

Molecules are shown by their SMILES. Structures can show the parent of a compound that is named as a salt. Where two headings read alike, the source gives them in different places.

Experiment [1] concerns the target T1, SARS-CoV-2 PLpro (nsp3 1564–1878) (Severe acute respiratory syndrome coronavirus 2, UniProt P0DTD1). Description: biochemical. The conditions noted are these: low concentration screen, read-out: % of control remaining. Set-up: FRET-quenched peptide (Pro3) cleavage by PLpro, 10 min pre-incubation, slope over 20 min, normalised to no-compound control.
Experiment [2] deals with T1, SARS-CoV-2 PLpro (nsp3 1564–1878). The experiment is described as follows: biochemical. The arrangement: FRET-quenched peptide (Pro3) cleavage by PLpro, 10 min pre-incubation, slope over 20 min, normalised to no-compound control. The conditions noted are these: high concentration screen, read-out: % of control remaining.

Take `CCCCC[C@H](O)/C=C/C=C\C/C=C\CCCCCCC(=O)O` [15(S)-HETrE]: the remaining activity at 1.25 µM in experiment [1] (Well no.=4229) is 99.3%. For the same compound, in experiment [2] (Well no.=4229), the remaining activity at 3.75 µM was 106%.
For the compound `CCCCC[C@@H](/C=C/C=C\CCCCCCCCCC(=O)O)OO` [15(S)-HPEDE], in experiment [1] (Well no.=4333), the remaining activity at 1.25 µM worked out at 108%. Also, the remaining activity at 3.75 µM in experiment [2] (Well no.=4333) was 105%.
As for `CC/C=C\C[C@@H](/C=C/C=C\C/C=C\C/C=C\CCCC(=O)O)OO` [15(S)-HPEPE], in experiment [1] (Well no.=4335), the remaining activity at 1.25 µM worked out at 103%. Further, the remaining activity at 3.75 µM in experiment [2] (Well no.=4335) amounted to 102%.
Consider `CCCCC[C@@H](/C=C/C=C\C/C=C\C/C=C\CCCC(=O)O)OO` [15(S)-HPETE], for which, in experiment [1] (Well no.=4331), the remaining activity at 1.25 µM is 99.3%. In addition, the remaining activity at 3.75 µM in experiment [2] (Well no.=4331) came out at 98.7%.
On to `CCCCCCCC/C=C\CCCCCCCCCCCCCC(=O)O` [15(Z)-Tetracosenoic acid], for which the remaining activity at 1.25 µM in experiment [1] (Well no.=4504) amounted to 93.9%. Moreover, the remaining activity at 3.75 µM in experiment [2] (Well no.=4504) worked out at 98.5%.
As to `CCCCCC(=O)/C=C/[C@H]1[C@H](O)CC(=O)[C@@H]1C/C=C\CCCC(=O)O` [15-keto-prostaglandin E2], the remaining activity at 1.25 µM in experiment [1] (Well no.=4485) stood at 89%. Further, the remaining activity at 3.75 µM in experiment [2] (Well no.=4485) came to 96.6%.
Take `CCCCCC(=O)/C=C/[C@@H]1[C@@H](C/C=C\CCCC(=O)O)[C@@H](O)C[C@H]1O` [15-keto-prostaglandin F2a]: in experiment [1] (Well no.=4571), the remaining activity at 1.25 µM is 90.1%. The remaining activity at 3.75 µM in experiment [2] (Well no.=4571) came out at 88.5%.
Turning to `CCCCC(C)(C)[C@H](O)/C=C/[C@H]1[C@H](O)CC(=O)[C@@H]1C/C=C\CCCC(=O)O` [16,16-Dimethyl-prostaglandin E2], the remaining activity at 1.25 µM in experiment [1] (Well no.=4517) was 96.1%. Further, in experiment [2] (Well no.=4517), the remaining activity at 3.75 µM was determined as 99.3%.
As to `C[C@@]12CCc3occc3[C@H]1CC[C@]13CC(=O)[C@H](CC[C@H]12)C3` [16-Oxocafestol], the remaining activity at 1.25 µM in experiment [1] (Well no.=3669) turned out to be 92.6%. In addition, the remaining activity at 3.75 µM in experiment [2] (Well no.=3669) was 91.5%.
Turning to `C[C@@]12C=Cc3occc3[C@H]1CC[C@]13CC(=O)[C@H](CC[C@H]12)C3` [16-Oxokahweol], the remaining activity at 1.25 µM in experiment [1] (Well no.=3693) was 94.8%. Further, the remaining activity at 3.75 µM in experiment [2] (Well no.=3693) amounted to 99%.
For `C#CCCCCCCCCCCCCCCCC(=O)O` [17-Octadecynoic acid], the remaining activity at 1.25 µM in experiment [1] (Well no.=4351) is 105%. Moreover, the remaining activity at 3.75 µM in experiment [2] (Well no.=4351) amounted to 104%.
For `C[C@@H](O)CCC[C@H](O)/C=C/[C@H]1[C@H](O)CC(=O)[C@@H]1C/C=C\CCCC(=O)O` [19(R)-Hydroxy-prostaglandin E2], the remaining activity at 1.25 µM in experiment [1] (Well no.=4533) was determined as 91.3%. For the same compound, the remaining activity at 3.75 µM in experiment [2] (Well no.=4533) amounted to 88.8%.
As to `O=C(O)CCCC/C=C\C[C@@H](O)/C=C/C=C/C=C\[C@@H](O)CCCC(=O)O` [20-Carboxy-leukotriene B4], in experiment [1] (Well no.=4427), the remaining activity at 1.25 µM was 94.3%. Moreover, the remaining activity at 3.75 µM in experiment [2] (Well no.=4427) is 98.4%.
For `O=C(O)CCC[C@H](O)\C=C/C=C/C=C/[C@H](O)C/C=C\CCCCCO` [20-Hydroxy-leukotriene B4], in experiment [1] (Well no.=4425), the remaining activity at 1.25 µM turned out to be 101%. Also, in experiment [2] (Well no.=4425), the remaining activity at 3.75 µM was determined as 103%.
As for `C=C1CC[C@H](O)C/C1=C\C=C1/CCC[C@]2(C)[C@@H]([C@H](C)CC[C@@H](O)C(C)(C)O)CC[C@@H]12` [24(R),25-Dihydroxyvitamin D3], in experiment [1] (Well no.=4424), the remaining activity at 1.25 µM came to 95.3%. Further, the remaining activity at 3.75 µM in experiment [2] (Well no.=4424) stood at 88.6%.
As for `C[C@H](CCCC(C)(C)O)[C@H]1CC[C@H]2[C@@H]3CC=C4C[C@@H](O)CC[C@]4(C)[C@H]3CC[C@]12C` [25-Hydroxycholesterol], the remaining activity at 1.25 µM in experiment [1] (Well no.=6353) was 101%. Further, in experiment [2] (Well no.=6353), the remaining activity at 3.75 µM worked out at 101%.
For `CO[C@H]1C[C@@H]2CC[C@@H](C)[C@@](O)(O2)C(=O)C(=O)N2CCCC[C@H]2C(=O)O[C@H]([C@H](C)C[C@@H]2CC[C@H](n3ncnn3)[C@H](OC)C2)CC(=O)[C@H](C)/C=C(\C)[C@@H](O)[C@@H](OC)C(=O)[C@H](C)C[C@H](C)/C=C/C=C/C=C/1C` [42-(2-Tetrazolyl)rapamycin], the remaining activity at 1.25 µM in experiment [1] (Well no.=7592) is 91%. The remaining activity at 3.75 µM in experiment [2] (Well no.=7592) stood at 91.6%.
For the compound `CC(N)=NCc1cccc(CN)c1` [1400W dihydrochloride], the remaining activity at 1.25 µM in experiment [1] (Well no.=1434) is 88%. For the same compound, the remaining activity at 3.75 µM in experiment [2] (Well no.=1434) is 90.8%.
As for `Nc1ccn([C@H]2CC[C@@H](CO)O2)c(=O)n1` ["2',3' - Dideoxycytidine"], the remaining activity at 1.25 µM in experiment [1] (Well no.=1980) came to 103%. In addition, in experiment [2] (Well no.=1980), the remaining activity at 3.75 µM amounted to 102%.
As for `COc1cc(/C=C/C(=O)CC(=O)/C=C/c2ccc(O)cc2)ccc1O` [(1E,6E)-1-(4-hydroxy-3-methoxyphenyl)-7-(4-hydroxyphenyl)-1,6-heptadiene-3,5-dione], in experiment [1] (Well no.=5795), the remaining activity at 1.25 µM is 90.1%. Moreover, the remaining activity at 3.75 µM in experiment [2] (Well no.=5795) was determined as 95.2%.
For `O=C(Nc1cc(Cl)cc(Cl)c1)[C@H]1CCCC[C@H]1C(=O)O` [(1R,2S)-VU0155041], the remaining activity at 1.25 µM in experiment [1] (Well no.=8475) worked out at 99%. The remaining activity at 3.75 µM in experiment [2] (Well no.=8475) is 103%.
Take `CCCCCCCCCCCCCCCCCCc1ccc(C(=O)/C=C/C(=O)O)cc1` [(2E)-4-(4-octadecylphenyl)-4-oxo-2-butenoic acid]: the remaining activity at 1.25 µM in experiment [1] (Well no.=5554) was 97.9%. Further, in experiment [2] (Well no.=5554), the remaining activity at 3.75 µM is 99.3%.
Consider `O=C(/C=C/c1cccnc1)NCCCCC1CCN(C(=O)c2ccccc2)CC1` [(2E)-N-[4-(1-benzoyl-4-piperidinyl)butyl]-3-(3-pyridinyl)-2-propenamide hydrochloride hydrate], for which the remaining activity at 1.25 µM in experiment [1] (Well no.=5694) came out at 97.8%. Also, the remaining activity at 3.75 µM in experiment [2] (Well no.=5694) came out at 92.8%.
With `CCOc1cc2ncc(C#N)c(Nc3ccc(F)c(Cl)c3)c2cc1NC(=O)/C=C/CN(C)C` [(2E)-N-[4-(3-chloro-4-fluoroanilino)-3-cyano-7-ethoxy-6-quinolinyl]-4-(dimethylamino)-2-butenamide], in experiment [1] (Well no.=5707), the remaining activity at 1.25 µM came out at 101%. Besides, the remaining activity at 3.75 µM in experiment [2] (Well no.=5707) amounted to 102%.
Regarding `CCCOc1cc2c(cc1\C(C)=C/C=C/C(C)=C/C(=O)O)C(C)(C)CCC2(C)C` [(2E,4E,6Z)-3-methyl-7-(5,5,8,8-tetramethyl-3-propoxy-5,6,7,8-tetrahydro-2-naphthalenyl)-2,4,6-octatrienoic acid], the remaining activity at 1.25 µM in experiment [1] (Well no.=6004) is 92.7%. In addition, the remaining activity at 3.75 µM in experiment [2] (Well no.=6004) amounted to 93%.
As for `CCN(C)C(=O)Oc1cccc([C@H](C)N(C)C)c1` [(2R,3R)-2,3-dihydroxybutanedioic acid compound with 3-[(1S)-1-(dimethylamino)ethyl]phenyl ethyl(methyl)carbamate (1:1)], the remaining activity at 1.25 µM in experiment [1] (Well no.=5811) turned out to be 96.9%. Besides, the remaining activity at 3.75 µM in experiment [2] (Well no.=5811) was found to be 98%.
On to `O=C1c2c(O)cc(O)cc2O[C@H](c2cc(O)c(O)c(O)c2)[C@H]1O` [(2R,3R)-3,5,7-trihydroxy-2-(3,4,5-trihydroxyphenyl)-2,3-dihydro-4H-chromen-4-one], for which the remaining activity at 1.25 µM in experiment [1] (Well no.=5388) was found to be 106%. Further, in experiment [2] (Well no.=5388), the remaining activity at 3.75 µM was 111%.
As to `Nc1ncnc2c1nc(N)n2[C@@H]1O[C@H](CO)[C@@H](O)[C@H]1O` [(2R,3R,4S,5R)-2-(6,8-diamino-9H-purin-9-yl)-5-(hydroxymethyl)tetrahydrofuran-3,4-diol], in experiment [1] (Well no.=5532), the remaining activity at 1.25 µM stood at 106%. The remaining activity at 3.75 µM in experiment [2] (Well no.=5532) was determined as 105%.
